# Results published in patent publication US20240217946A1, “ANTIDEPRESSANT AND ANXIOLYTIC SUBSTITUTED CINNAMAMIDE COMPOUND” (TASLY PHARMACEUTICAL GROUP CO., LTD., priority 2021, published 2024).
# Entries after “also recorded” stand apart in the source; their conditions may differ. Where a name gives a salt, the structure may show the parent alone. Marks after values point to notes of the source that are not given here.
# How the values were obtained:
# [1] = tested on: DA reuptake in rat brain synaptosomes; assay: 3H-DA reuptake by rat brain synaptosomes; assay type: biochemical; settings: 100 μM, positive control
# From the text: At present, it is believed that absolute or relative deficiencies of the central monoamine neurotransmitters 5-hydroxytryptamine (5-HT), norepinephrine (NA) and dopamine (DA) are closely related to depression and anxiety. This experiment was designed to evaluate, by the method of in vitro monoamine reuptake, the inhibitory effect of two samples of tested compound I-5 and compound M2 on reuptake of 5-HT, NA and DA in rat brain synaptosomes. The preparation of in vitro SD rat brain synaptosomes and isotopic tracer method were employed to investigate IC50 of inhibition of monoamine reuptake of DA, 5-HT and NA in two tested samples, in order to explore the possible mechanism of antidepressant and anxiolytic effects of compound I-5 and compound M2.
# Synaptosomes were separated using methods in literature to prepare brain synaptosomes. SD rats were rapidly decapitated with a small animal decapitator. After decapitation, brains were taken out quickly and precooled in an ice-water mixture, and the pia mater and vascular tissue were removed. Brain tissue was taken out. 10 times volume (ml/g) of 10 mM Tris HCl buffer (containing 0.32 M sucrose, pH 7.4) was added, an ultrasonic cell pulverizer was used for homogenization (maintaining at a low temperature), and the brain tissue was homogenized and centrifuged for 10 min (4° C., 1,000 g). After balanced centrifugation (1500 g, 10 min) at 4° C., precipitate was discarded, then supernatant was taken, and centrifugation (20000 g) was performed again for 30 min. The supernatant was discarded and the precipitate, i.e. crude extract of synaptic corpuscles, was retained. […] The precipitate was suspended in a small amount of Kreb's buffer (NaCl 118 mM, KCl 4.7 mM, CaCl2) 2.5 mM, MgSO4 1.2 mM, KH2PO4 1.2 mM, NaHCO325 mM and Glucose 11.1 mM, pH 7.2-7.4), BCA method was used for protein quantification, and the operation steps were as described in the description. […]
# (§1) The percentage inhibition of isotope ligand binding by each compound was calculated according to the following equation: […]
# SD rats = assay: Vogel drinking conflict experiment in rats, single administration; assay type: in vivo; settings: 30 min after single dose, punishment stage 3 min, n = 8
# Protocol: 75 male SD rats, with the body weight of 180-220 g, were fed adaptively for 1 week, water deprived for 24 h for training period test. The animals screened to be qualified were randomly divided into 7 groups (a solvent control group, estazolam group, compound M2 group, compound II-3 group, compound II-4 group, compound II-5 group and compound II-10 group) according to their body weight, with 8 rats in each group. […] results of 3.1: the positive drug estazolam was administered intragastrically at 1.24 mg/kg; and the solvent control group was gavaged with an equal volume of solvent. The grouped animals were continued to be water deprived for 24 h and were given a single dose, and tested in a punishment experiment 30 min after the single dose.
# The experiment was carried out in two stages. The first stage is a training stage, in which 24 h after water deprivation, animals were placed in an operation box separately, and were allowed to fully explore until they found the bottle mouth and started to lick water (with an intensity of electric shock being 0 mA), a counter automatically recorded the number of licks within 3 min, and the animals that licked water less than 300 times were eliminated.
# Observation index: the number of water licks of rats in the punishment stage.
# (§2) Data was expressed as mean±standard (mean±SD) difference, and statistics of data differences were made by one-way analysis of variance (ANOVA) or nonparametric test, and differences between groups were determined by P<0.05.
# ICR mice = assay: Elevated plus maze experiment in mice, single administration; assay type: in vivo; settings: for OE % / OT %: 30 min after single administration
# Protocol: 50 male ICR mice were randomly divided into 5 groups (a solvent control group, estazolam group, M2 high dosage group, M2 medium dosage group, M2 low dosage group), with 10 mice in each group. The compound M2 high, medium and low dosage groups were intragastrically administered at 20 mg/kg. 10 mg/kg and 5 mg/kg, respectively; the positive drug estazolam was intragastrically administered at 2.5 mg/kg; and the solvent control group was gavaged with an equal volume of solvent. Behavior test was performed in each group 30 min after single administration. The experiments were required to be conducted between 8:00 am and […], and all animals entered the test laboratory on the previous day.
# The laboratory was dimly lit (with the lowest brightness that can distinguish the subtle activities of mice at a distance of 1.5 m) and the brightness was kept constant, with a room temperature of about 20° C., and kept quiet. Before the maze test, each mouse was placed in a 35 cm*10 cm*5 cm plastic box and left to explore freely for 5 min and then quickly placed at the central platform of an elevated plus maze, with its head facing one of the open arms, and the following indexes were recorded upon release. Each mouse was tested for 5 min. Observers observed and recorded animal activities at a distance of 1.5 m. At intervals, the maze was wiped with a wet cloth to remove feces, and then wiped with a dry cloth before a next mouse was tested.
# • (1) The number of open arm entries (OE): the number of entries into any open arm, based on the fact that all four claws of the mouse entered the arm, and a complete exit of one claw from the arm indicated the completion of the entry activity; • (2) open arm time (OT): the time of entering an open arm, with the unit of seconds; • (3) the number of close arm entries (CE): the number of entries into any close arm, based on the fact that all four claws of the mouse entered the arm; • (4) close arm time (CT): the time of entering a close arm, with the unit of seconds; • (5) percentage of open arm time: OT %=OT/(OT+CT)*100%; and • (6) percentage of open arm entries: OE %=OE/(OE+CE)*100%.
# 70 male ICR mice were randomly divided into 7 groups (a solvent control group, estazolam group, compound M2 group, compound II-3 group, compound II-4 group, compound II-5 group, and compound II-10 group), with 10 mice in each group. The dosage of M2 and its four structurally similar compounds was determined as 20 mg/kg according to the experimental results of 3.1: the positive drug estazolam was administered intragastrically at 2.5 mg/kg; and the solvent control group was gavaged with an equal volume of solvent. Behavior test was performed in each group 30 min after single administration. The experiments were required to be conducted between 8:00 am and […], and all animals entered the test laboratory on the previous day.
# The behavioral test method and behavioral observation indexes were the same as those in 3.1.
# as §2
# mice [2] = settings: Patent C; cited from earlier work
# mice [3] = settings: 10 mg/kg continuously for 7 days; cited from earlier work
# [4] = tested on: NA reuptake in rat brain synaptosomes; assay: 3H-NA reuptake by rat brain synaptosomes; assay type: biochemical; settings: 100 μM, positive control
# From the text: At present, it is believed that absolute or relative deficiencies of the central monoamine neurotransmitters 5-hydroxytryptamine (5-HT), norepinephrine (NA) and dopamine (DA) are closely related to depression and anxiety.
# Synaptosomes were separated using methods in literature to prepare brain synaptosomes. SD rats were rapidly decapitated with a small animal decapitator. After decapitation, brains were taken out quickly and precooled in an ice-water mixture, and the pia mater and vascular tissue were removed. Brain tissue was taken out. 10 times volume (ml/g) of 10 mM Tris HCl buffer (containing 0.32 M sucrose, pH 7.4) was added, an ultrasonic cell pulverizer was used for homogenization (maintaining at a low temperature), and the brain tissue was homogenized and centrifuged for 10 min (4° C., 1,000 g). After balanced centrifugation (1500 g, 10 min) at 4° C., precipitate was discarded, then supernatant was taken, and centrifugation (20000 g) was performed again for 30 min. The supernatant was discarded and the precipitate, i.e. crude extract of synaptic corpuscles, was retained. The precipitate was further suspended in 0.32 M cold sucrose solution and then carefully laid on 1.2 M and 0.8 M (10 ml each) cold sucrose gradient solutions which had been laid sequentially on the bottom of the tube, followed by balanced centrifugation (38000 g) at 4 °C for 60 min. A suspension band at the 0.8-1.2 M sucrose interface was carefully collected with a puncture needle, which was placed in 10 ml of 0.32 M cold sucrose solution and mixed well, and equilibrium centrifuged (20000 g) at 4 °C for 30 min. The precipitate was refined brain synaptosomes. […]
# as §1
# [5] = tested on: pyramidal neurons in prefrontal PrL brain area; assay: Brain slice electrophysiology, sEPSC of mPFC pyramidal neurons; assay type: cell-based, mice; settings: antagonist at working concentration 10 μM
# From the text: 2) Brain Slice Electrophysiological Experiment: For Detecting Effect of Compound M2 on mPFC Excitatory Synaptic Transmission • Animal: neonatal mice C57 BL/6J (20-30 days). • Instrument: vibratome (Leica), brain slice electrophysiological system (Axon). • Brain slice electrophysiological experiment method • SEPSC experiment method: Neonatal C57 mice were anesthetized and then perfused with artificial cerebrospinal fluid (ACSF). After decapitation, brain tissue was taken quickly and sliced by vibratome, with a thickness of a brain slice being 300 μm. After the brain slices were incubated at 28 °C for 1 h, whole-cell recordings of mPFC pyramidal neurons were made using a voltage clamp (−70 mV) through a brain slice electrophysiological system. The baseline recording time was 6 min, and then a drug to be tested was added through a perfusion system (the drug was dissolved using ACSF), and the recording time after adding the drug was 6-10 min. Recorded data was analyzed using Minianalysis software, and effects of the drug to be tested on sEPSC frequency and amplitude of medial prefrontal pyramidal neurons in C57 mice were compared.
# All data analysis was done using spss data processing software, and data was expressed by Mean±s.e.m. One-way ANOVA was used to analyze the effect of compound M2 and the effect of compound M2 under the action of dopamine receptor antagonists on sEPSC current: and paired t test was used to analyze sEPSC experimental results. * was marked when p<0.05.
# During the experiment, 10 μM Bicuculine was added to the solution to block GABA receptor, so as to record sEPSC of pyramidal neurons. The experiment investigated effects of different concentrations of compound M2 on spontaneous excitatory postsynaptic […] (sEPSC) of pyramidal neurons in prefrontal PrL brain area, as shown in FIG. 2.
# C57 BL/6J male mice = assay: Forced swimming experiment in mice; assay type: in vivo; settings: 24 h after a single i.p. administration; fluoxetine 10 mg/kg, esketamine 10 mg/kg, M2 3-30 mg/kg
# From the text: 1) Forced Swimming Experiment: Also Known as Despair Experiment, an Experiment Usually Used to Test Depression-Like Behavior of Mice
# • Animal: C57 BL/6J male mice (18-20 g)
# Intraperitoneal injection (i.p)
# [6] = comparative study (Table 13), 20 mg/kg i.g.
# [7] = comparative study (Table 13), 2.5 mg/kg i.g.
# [8] = dosage exploration study (Table 12), 2.5 mg/kg i.g.
structure (smiles),measurement,setting,value
Br.NCCc1cc(O)c(O)cc1O [6-Hydroxydopamine hydrobromide],inhibition of 3H-DA reuptake by synaptosomes,[1],100%
CC(C)CNC(=O)/C=C/c1cc(I)c2c(c1)OCO2 [Compound II-3],Number of times of drinking water,SD rats; 10 mg/kg i.g.,363.96 ± 145.26
same,OE %,ICR mice; [6],41.04 ± 9.52 %
same,OT %,ICR mice; [6],42.99 ± 11.82 %
same,effective anxiolytic dosage in mice elevated plus maze experiment,mice [2],10 mg/kg
CC(C)CNC(=O)/C=C/c1cc(Cl)c2c(c1)OCO2 [Compound II-4],Number of times of drinking water,SD rats; 10 mg/kg i.g.,387.07 ± 57.31
same,OE %,ICR mice; [6],46.79 ± 9.31 %
same,OT %,ICR mice; [6],53.45 ± 8.33 %
same,anxiolytic activity in elevated plus maze vs solvent control group,"ICR mice; comparative study, single intragastric administration of 20 mg/kg",significant anxiolytic activity
same,"reserpine-induced body temperature decrease and akinesia in mice, degree of eye closure",mice [3],significantly antagonizing
same,effective anxiolytic dosage in mice elevated plus maze experiment,mice [2],10 mg/kg
CNCCCN1c2ccccc2CCc2ccccc21 [Desipramine hydrochloride],inhibition of 3H-NA reuptake by synaptosomes,[4],100%
Clc1ccc2c(c1)C(c1ccccc1)=NCc1nncn1-2 [Estazolam],Number of times of drinking water,SD rats; 1.24 mg/kg i.g.,540.41/kg2.25*
same,OE %,ICR mice; [7],69.60 ± 15.12 %
same,OT %,ICR mice; [7],73.46 ± 20.29 %
same,OE %,ICR mice; [8],42.78 ± 15.27 %
same,OT %,ICR mice; [8],50.12 ± 12.76 %
CCN1CCCC1CNC(=O)c1cc(S(N)(=O)=O)ccc1OC (centres unmarked) [Sulpride],blocking of the enhancement effect of 150 μM compound M2 on sEPSC distribution frequency,[5],can block the enhancement effect; also recorded: significantly block
"CN[C@]1(c2ccccc2Cl)CCCCC1=O [esketamine, Esketamine]",antidepressant-like effect,C57 BL/6J male mice,had antidepressant-like effect
"CNCCC(Oc1ccc(C(F)(F)F)cc1)c1ccccc1 (centres unmarked) [fluoxetine, Fluoxetine]",antidepressant-like effect,C57 BL/6J male mice,no antidepressant-like effect
